In paper PMC8397634 (Journal of Natural Medicines, 2021):

Assays:
[1] = tested on: other molecular targets (175 in vitro binding and enzymatic assays); test: In vitro molecular target profiling (175 binding and enzymatic assays); settings: 10 µM single concentration; 175 assays; effect greater than 50% considered significant
Procedure: (§1) All binding and functional assays for molecular target characterization were conducted by Eurofins Cerep SA (Celle-Lévescault, France) and Eurofins Panlabs Discovery Services Taiwan, Ltd. (New Taipei City, Taiwan) using their standard in vitro binding and functional assays (Online Source 2). The radioligand displacement binding assays employed the gold-standard filtration method using membrane preparations from stable cell lines expressing human or rodent target proteins to determine the interaction of the compounds with specific receptors, channels, and transporters. For this purpose, the competitive binding of test compounds against a [^125I]-, [^3H]-, or [^35S]-labeled agonist and/or antagonist was determined. The specific list of radiolabeled ligands and experimental conditions are summarized in Online Source 2. A single concentration of each compound (10 µM in 0.1% DMSO) was used for the screen. […] Negative values were considered to be an artifact arising from, for example, compounds interfering with the assay readout.
3.1. Experimental Conditions
In Vitro Pharmacology: Binding Assays
(§2) Assay Source Ligand Conc. Kd Non Specific Incubation Detection Bibl.

[2] = Brain bioavailability assay in zebrafish (UPLC-HRMS of brain homogenate); assay type: in vivo, Danio rerio; settings: both sexes, zebrafish (Danio rerio), in vivo, 1 mg/L; zebrafish brain after 20-min exposure; linear relationship assumed; mean ± SEM; read-out: Relative brain level per 1 mg/L compound
Procedure: Four fish (2 males and 2 females) per compound were used to determine the brain bioavailability of the compounds. Immediately after the 20-min compound treatment, the zebrafish were rinsed briefly to remove excessive compound on their body and terminated with 250 mg/L tricaine (CAS No. 886-86-2; Sigma). The fish were decapitated at the level of the gills using a surgical knife. The head was turned dorsal side down, and soft tissue was removed from the ventral side of the skull until the base of the skull was exposed. The skull was broken open and the bone from the ventral side of the brain was removed. The brain was then placed in a microcentrifuge tube, weighed, snap-frozen in liquid nitrogen, and stored at – 80 °C until the analysis.
Briefly, on the day of analysis, the brain samples were defrosted, resuspended in a methanol solution (2:1 [v/v] methanol:MilliQ water), and homogenized with vigorous agitation and ultrasonication (5 min each). The homogenate was centrifuged at 15,000 × rpm for 10 min, and the supernatant was analyzed using a UPLC-Q Exactive Orbitrap-HRMS system (Thermo Fisher Scientific™, Bremen, Germany). Chromatographic separation was achieved on a Synergi™ 4-µm Hydro-RP 80 Å, L.C. Column (250 × 4.6 mm; Phenomenex Inc., Torrance, CA, USA) with 0.1% formic acid in water (mobile phase A) and 0.1% formic acid in acetonitrile (mobile phase B). A gradient method at a 500 µL/min flow rate was applied as follows: (1) 5% B for 1 min, and (2) increase to 95% B over 7 min and hold for 2 min. The injection volume was 5 μL. The mass spectrometer was operated in electrospray positive mode (ESI, Thermo Fisher Scientific), while data acquisition was performed using the parallel reaction monitoring (PRM) and full scan modes. The source settings were set as follows: sheath gas flow rate = 60 psi; aux gas flow rate = 20 arbitrary units; spray voltage = 3.5 kV; capillary temperature = 280 °C; and sweep gas flow rate = 1. The full scan mode parameters were set as follows: resolution = 35,000 FWHM at 200 m/z; AGC target = 1E6; maximum injection time = 110 ms; and scan range = 100–350 m/z. The chromatographic and Orbitrap MS parameters for PRM analysis were the same as those in the full scan mode, except for: AGC target = 2E5; maximum IT = 60 ms; and resolution = 17,500 FWHM at 200 m/z. The XCalibur™ v4.0.27.19 software (Thermo Fisher Scientific) and TraceFinder™ v4.1 Forensic (Thermo Fisher Scientific, San José, CA, USA) were used for system control and data processing, respectively. The Q Exactive 2.8 SP 1 software (Thermo Fisher Scientific) was used to control the mass spectrometer.

[3] = tested on: zebrafish (Danio rerio; strain AB)
Procedure: The NTT conditions closely matched the most commonly used conditions described by. In brief, adult male and female wild-type zebrafish were treated with the compounds for 20 min in a final volume of 50 mL in a 250-mL treatment beaker, one fish at a time. The fish were briefly rinsed in fresh system water, and then immediately transferred to a trapezoidal tank (14.6-cm height × 5.5-cm width × 27.9-cm top length and × 23.6-cm bottom length) filled with 1.5 L system water. The behavior of the fish was monitored for the next 5 min using the Noldus EthoVision XT system (Wageningen, Netherlands), with the camera placed approximately 1 m from the test tank. The tanks were uniformly illuminated from above at approximately 200 lx, reported to be the optimal illumination condition for NTT [23]. Background noise was kept at a minimum during the test. All experimental parameters were monitored closely and kept as consistent as possible throughout the study. The part of the tank filled with water (11.5-cm height) was virtually divided into top, center, and bottom of equal heights (approximately 3.8 cm per segment) for the analyses. The average time spent at the top and bottom portions of the tank was analyzed to determine the anxiety-like behavior of fish. The average total distance traveled and freezing time (as defined by a complete cessation of movement except for gills and eyes) were calculated to determine the effects of the compounds on the general behavior of fish. The analyses were conducted for 1-min time bins. To account for any day-to-day variability in fish behavior, fish treated with vehicle were tested on the same day as the compounds. […] A minimum of 12 fish (6 females and 6 males) per condition were used for the study. The actual sample size per condition is indicated in Online Resource 1. […] The experimenters were blind to the test conditions. The NTT was validated with buspirone, a clinical anxiolytic drug, as previously described.
If not, the concentration was reduced until no obvious signs of tolerability problems were observed. […] The concentrations were calculated based on the free base molecular weight.
Two-way repeated measures analysis of variance (ANOVA) with Dunnett post hoc was used for the 1-min binned analysis of the zebrafish NTT data. Treatment was one factor, and time was the second factor. […] Thus, male and female datasets were combined for the final analyses. […] The EC50 values were determined by applying the nonlinear regression analysis. All analyses were conducted using GraphPad Prism v8.2.1 (GraphPad Software, San Diego, CA, USA).

[4] = target: T1, α4β2 nAChRs (Homo sapiens, UniProt P17787+P43681); test: In vitro α4β2 nAChR radioligand displacement binding assay; parameters: host or cells: SH-SY5Y cells (human recombinant), membrane preparation; settings: 10 µM single concentration; effect greater than 50% considered significant
T1 sequence (P43681 29-627 limits assumed): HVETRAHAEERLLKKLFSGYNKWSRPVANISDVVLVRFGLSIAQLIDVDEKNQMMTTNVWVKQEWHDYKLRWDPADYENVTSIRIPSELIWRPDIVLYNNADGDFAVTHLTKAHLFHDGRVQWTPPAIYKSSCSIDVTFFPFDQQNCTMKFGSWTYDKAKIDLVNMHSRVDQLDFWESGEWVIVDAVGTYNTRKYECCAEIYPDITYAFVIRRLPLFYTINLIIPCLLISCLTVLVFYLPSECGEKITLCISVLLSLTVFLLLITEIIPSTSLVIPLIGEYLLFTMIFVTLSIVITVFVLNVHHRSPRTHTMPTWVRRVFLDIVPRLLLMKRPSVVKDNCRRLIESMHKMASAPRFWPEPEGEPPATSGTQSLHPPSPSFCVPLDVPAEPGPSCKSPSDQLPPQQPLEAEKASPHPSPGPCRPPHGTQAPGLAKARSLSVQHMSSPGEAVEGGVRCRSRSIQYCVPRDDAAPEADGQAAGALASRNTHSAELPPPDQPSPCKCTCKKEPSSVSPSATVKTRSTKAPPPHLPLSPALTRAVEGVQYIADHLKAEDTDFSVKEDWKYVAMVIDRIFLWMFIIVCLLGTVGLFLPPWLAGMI
T1 sequence (P17787 26-502): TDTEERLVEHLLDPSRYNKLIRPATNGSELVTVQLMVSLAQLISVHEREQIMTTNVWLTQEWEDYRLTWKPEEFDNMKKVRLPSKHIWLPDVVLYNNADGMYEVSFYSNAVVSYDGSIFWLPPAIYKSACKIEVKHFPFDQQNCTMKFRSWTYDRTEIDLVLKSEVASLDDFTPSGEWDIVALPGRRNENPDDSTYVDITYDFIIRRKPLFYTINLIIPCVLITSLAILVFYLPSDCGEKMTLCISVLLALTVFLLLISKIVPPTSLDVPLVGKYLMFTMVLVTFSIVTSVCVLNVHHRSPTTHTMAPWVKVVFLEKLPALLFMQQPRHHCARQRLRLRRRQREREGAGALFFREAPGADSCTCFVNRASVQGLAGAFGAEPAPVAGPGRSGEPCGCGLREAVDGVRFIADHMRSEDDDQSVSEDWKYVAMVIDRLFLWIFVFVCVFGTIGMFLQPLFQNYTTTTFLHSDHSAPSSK
Procedure: as §1, §2

[5] = tested on: α7 nAChR; settings: ref 2 (Alijevic, et al.); cited from earlier work
[6] = target: T2, muscle-type nAChR (Homo sapiens, UniProt P02708+P07510+Q07001); test: Muscle-type nAChR radioligand binding (target profiling); settings: 10 µM single concentration; effect greater than 50% considered significant
T2 construct: TE671 cells; host or cells: TE671 cells (endogenous)
T2 sequence (P02708 21-457): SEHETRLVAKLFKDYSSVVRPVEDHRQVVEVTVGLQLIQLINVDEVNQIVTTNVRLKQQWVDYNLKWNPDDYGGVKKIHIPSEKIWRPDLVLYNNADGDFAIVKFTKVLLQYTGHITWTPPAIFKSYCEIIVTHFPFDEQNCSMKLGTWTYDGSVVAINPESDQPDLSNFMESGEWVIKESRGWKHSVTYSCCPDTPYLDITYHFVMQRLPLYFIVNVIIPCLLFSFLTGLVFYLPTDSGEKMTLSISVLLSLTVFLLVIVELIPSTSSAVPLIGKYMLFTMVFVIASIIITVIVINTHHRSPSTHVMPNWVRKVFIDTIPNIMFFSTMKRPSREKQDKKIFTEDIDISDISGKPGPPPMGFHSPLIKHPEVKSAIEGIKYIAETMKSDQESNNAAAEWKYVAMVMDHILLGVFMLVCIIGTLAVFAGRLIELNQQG
T2 sequence (Q07001 22-517): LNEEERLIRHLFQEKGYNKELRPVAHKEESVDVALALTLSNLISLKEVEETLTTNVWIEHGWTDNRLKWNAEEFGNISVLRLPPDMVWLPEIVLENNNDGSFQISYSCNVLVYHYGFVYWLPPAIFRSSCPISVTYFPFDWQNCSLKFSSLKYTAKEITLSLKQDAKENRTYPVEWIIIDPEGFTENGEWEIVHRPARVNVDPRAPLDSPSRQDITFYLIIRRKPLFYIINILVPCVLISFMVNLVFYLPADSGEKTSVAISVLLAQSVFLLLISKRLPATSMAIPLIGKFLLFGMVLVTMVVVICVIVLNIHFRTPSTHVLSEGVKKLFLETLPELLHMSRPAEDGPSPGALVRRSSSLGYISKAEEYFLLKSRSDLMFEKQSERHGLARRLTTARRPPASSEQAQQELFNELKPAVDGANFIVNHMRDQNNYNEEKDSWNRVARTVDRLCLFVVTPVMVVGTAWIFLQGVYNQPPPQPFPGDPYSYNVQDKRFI
T2 sequence (P07510 23-517): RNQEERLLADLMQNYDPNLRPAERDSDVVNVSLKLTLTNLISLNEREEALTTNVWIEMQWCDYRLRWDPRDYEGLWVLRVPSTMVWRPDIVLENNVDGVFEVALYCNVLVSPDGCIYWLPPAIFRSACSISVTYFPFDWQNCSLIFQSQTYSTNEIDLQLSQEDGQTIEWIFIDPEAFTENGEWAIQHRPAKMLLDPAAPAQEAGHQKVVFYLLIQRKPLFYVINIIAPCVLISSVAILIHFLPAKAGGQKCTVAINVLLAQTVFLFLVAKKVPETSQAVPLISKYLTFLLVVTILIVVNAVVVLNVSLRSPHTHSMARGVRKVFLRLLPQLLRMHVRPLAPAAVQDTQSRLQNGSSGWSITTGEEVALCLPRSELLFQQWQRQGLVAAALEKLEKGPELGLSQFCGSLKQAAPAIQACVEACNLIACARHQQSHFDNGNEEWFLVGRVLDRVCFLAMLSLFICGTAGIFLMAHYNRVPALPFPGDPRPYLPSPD
Procedure: as §1, §2

[7] = target: T1, α4β2 nAChRs; test: In vitro nAChR functional assay (automated patch-clamp, CHO cells); assay type: cell-based; settings: CHO, read-out: % activation of α4β2 nAChR (normalized to nicotine)
Procedure: Electrophysiological responses were recorded using an automated patch-clamp Patchliner Octo® system (Nanion Technologies, Munich, Germany) equipped with two EPC-10 Quadro patch-clamp amplifiers (HEKA Elektronik, Lambrecht, Germany) as described previously. Chinese hamster ovarian (CHO) cells stably expressing human α4β2 nAChRs (Charles River Laboratories, Wilmington, MA, USA) were used. All experiments were performed at room temperature (24 °C) and repeated at least three times. Data were analyzed using Patchmaster software (HEKA Elektronik). Offline data analysis was performed in Apache OpenOffice™ (v4.1.2; […]). Igor Pro software (v6.2.2.2; WaveMetrics, Lake Oswego, OR, USA) was used to determine EC50 values. […] The average values were then fitted to the Hill equation: I=Baseline+X^∧nH(Imax-Baseline)/X^∧nH+EC50^∧nH, where I is the current response, Baseline is the minimal current response, X is the agonist concentration, nH is the Hill coefficient, Imax is the maximal current, and EC50 is the agonist concentration producing half-maximal activation. […]

**Q.** For `C1=CCC(c2cccnc2)NC1` (racemic) [Anatabine, ( ±)-Anatabine], which “Binding to or regulation of other molecular targets” value [1] is on record?
**A.** did not bind or regulate the activities of other molecular targets

**Q.** And the concentration at 20 min [2]?
**A.** 440 ± 150 ng/g

**Q.** What about the “Freezing time during NTT” value ([3]; 0.3 mg/L) of the same compound?
**A.** increased the freezing time during the first 3 min

**Q.** And the “Concentration effective in reducing anxiety-like behavior in NTT” value ([3]; 20-min treatment)?
**A.** 10 mg/L

**Q.** What about the “Time spent at the bottom of the tank during NTT” value ([3]; highest concentration tested (10 mg/L), 20-min treatment) of the same compound?
**A.** significantly decreased the time spent at the bottom

**Q.** And the “Total distance traveled during NTT” value ([3]; lowest (0.3 mg/L) and highest (10 mg/L) concentrations)?
**A.** slight but significant reduction in the total distance traveled

**Q.** And the “Binding to α4β2 nAChR in target profiling” value [4]?
**A.** specific binding

**Q.** And the “α7 nAChR agonist activity” value [5]?
**A.** weak α7 nAChR agonist

**Q.** And the “Binding to muscle-type nAChR in target profiling” value [6]?
**A.** specific binding

**Q.** What about the Emax [7] of the same compound?
**A.** 80%
